What all share (format): physicochemical
A short description of data set [1]: Titration of Glutamic acid in water with NaOH. The source says: About one milliequivalent of NaOH was neutralized per milliequivalent of Glutamic acid in water to raise the pH of its aqueous solution from 2.9 to about 5.
The nature of data set [2]: Titration of Sodium Glutamate solution. The source says: Crystalline Sodium Glutamate gave solution of pH 6.7. It took, per milliequivalent of Sodium Glutamate used, little less than 1 milliequivalent of HCl to bring the pH from 6.7 down to 3 and about 1 milliequivalent of […] the pH from 6.7 to 10.8. Here, the crystalline Sodium Glutamate solution of pH 6.7 represents an intermediate form of alkaline protein.

Data set [3] is described as follows: Determination of Acid Neutralization Capacity (ANC) by titration against 1N HCl. The protocol: About 20 ml of 1N NaOH was added to about or less than 1 gram dry weight of the active ingredient (Protein isolate or protein rich extract) with about 10 ml water content. In cold treatment, the mixture was kept at room temperature overnight until the sedimented coagulum was seen to have been dispersed evenly in a solution. In a hot treatment, the mixture was kept in an oven at 80 degrees Celsius, volume restored to 30 ml by addition of distilled water and titrated after various stages of degradation after the period of treatment. Alkali remaining in excess was either neutralized by titrating against 1N HCl until pH dropped to 10.8 or by dialyzing the mixture using gelatin membrane against 700 milliliter portions of distilled water three to four times until the dialysate contained little alkalinity.
Acid Neutralization Capacity was noted as milliequivalents of HCl neutralized to maintain the pH at 3 for two hours and expressed as per gram dry weight of the active antacid ingredient or per dose of the antacid composition containing the active ingredient. Total volume of the reactants were adjusted to 30 ml or 40 ml and titrated against 1N HCl and pH was noted after each small dropwise addition. The pH was measured by a pH meter.
In titration of distilled water, it was observed that pH of the water raised rapidly to 10.8 with addition of a single drop. Similarly, while titrating 1N NaOH against 1N HCl, fall in pH from 12.2 to 10.8 was gradual. However, thereafter, just one drop was sufficient to lower the pH to neutral. Thus, it was clear that acid neutralized by the products within the pH range of 3 to 10.8 was due to Acid Neutralization Capacity when solutions of antacid active ingredients covered in the examples were titrated for determination of their ANC.
When alkali treated mixtures were titrated, acid required to bring down the pH to 10.8 was considered as acid required to neutralize the unreacted NaOH. Acid required to neutralize pH from 10.8 up to pH 3 was taken for calculation of ANC.
Whenever desired, the alkali treated mixture was dialysed through gelatin membrane against about 700 milliliters of distilled water each time three to four times. Significant quantity of alkalinity appeared in first two dialyses in first two hours. Third dialysis, usually done for several hours overnight usually contained very little of alkalinity in the range of pH 10.8 and above.

`N[C@@H](CCC(=O)O)C(=O)O` [Glutamic acid]: in data set [1] (from pH 5 to 10.9), the NaOH consumed result is given as “about 1.2 milliequivalents per milliequi”. Further, the “pH of aqueous solution” value in data set [1] (in water, before titration) was determined as 2.9. In data set [1] (to raise pH from 2.9 to about 5), the NaOH neutralized entry is on record as “About one”.

In turn, `N[C@@H](CCC(=O)[O-])C(=O)[O-].[Na+].[Na+]` [Sodium Glutamate] returned a pH of solution in data set [2] (crystalline Sodium Glutamate in solution) of 6.7. For the same compound, in data set [2] (pH from 6.7 down to 3), the “HCl to bring the pH down” value is “less than 1 milliequivalent per milliequiv”. Further, the “HCl to raise the pH” value in data set [2] (pH from 6.7 to 10.8) is reported as “about 1 milliequivalent per milliequiv”.

Consider Casein, for which the ANC is 1.5 milliequivalents of HCl per gr in data set [3] (after cold alkali treatment (1N NaOH, room temperature overnight), pH 10.8 to 3); 4.88 milliequivalents of HCl per gr in data set [3] (after hot alkali treatment (80 degrees Celsius) of 2 days); 8 milliequivalents of HCl per gr in data set [3] (after hot alkali treatment (80 degrees Celsius) of 6 days); 0.12 per gram in data set [3] (untreated protein isolate, HCl neutralized to maintain pH 3 for two hours).

Values taken from patent publication US20080103089A1, “Compounds, Compositions, Formulations and Process for Preparation Thereof and Method of Treatment and Management of Acidity and Related Disorders” (priority 2004, published 2008).
